A short description of this data set: Human HepG2 cell viability assay in 384 well format. It counts as toxicity, cell-based. Set-up: dose 125 nL, time 70.5 hour; concentration not given beside the values. As to conditions: HepG2 cells, read-out: Inhibition.
With `CSCCC(=O)N1CC[C@@H](N2CCN(c3ccccc3F)CC2)[C@H](O)C1`, the cytotoxicity at 70.5 h stood at 33.8%. Regarding `CSCCC(=O)N(C/C=C/c1ccccc1)CCO`, the cytotoxicity at 70.5 h was -5.02%. Take `Cc1nn(CCC(=O)NC(C(=O)O)c2c(C)n[nH]c2C)c(C)c1C` (stereo unspecified): the cytotoxicity at 70.5 h is -3.08%.

Turning to `Cc1cc(N2CCN(C(=O)CCc3scnc3C)CC2)cc(C)n1`, the cytotoxicity at 70.5 h stood at 21.2%. As to `COc1ccc2c(c1)Cc1c-2nc(N)c(C#N)c1C1CCOC1` (stereo unspecified), the cytotoxicity at 70.5 h was 2.5%. Under `CN(C)C(=O)N1C[C@@H]2CC[C@H](C1)N(C(=O)c1cccc(N(C)C)c1)C2` stands -4.96%; under `NC(=O)CN1CC2(CCC1=O)CCN(Cc1ccc(F)cc1Cl)CC2`, -1.9%; under `O=C(NCC(F)F)c1ccc(S(=O)(=O)N2CCCC(O)C2)cc1` (stereo unspecified), 18.2%. In the case of `COCCc1noc(Cn2c(=O)[nH]c3ccccc32)n1`, the cytotoxicity at 70.5 h is -10.2%. Under `CCN1CC2(CCN(CC3CCCO3)CC2)OC1=O` (stereo unspecified) stands -2.54%. Under `CNc1ncc(C(=O)N2CC[C@@](O)(C3CCOCC3)[C@H](C)C2)cn1` stands 5.71%; under `Cn1cc(-c2ccnc(NCC3CCN(Cc4ccccc4)C3)n2)cn1` (stereo unspecified), 11.9%. Under `COc1ccnc(CNc2cc(C3CC3)ncn2)c1` stands -11.7%; under `COCc1noc(CN2C(=O)OC[C@@H]2C(C)C)n1`, 19.3%.

For the compound `O=C(N1CCC(OCc2ccccn2)CC1)C1(c2ccc(F)cc2)CC1`, the cytotoxicity at 70.5 h was -0.41%. With `Cc1cc2nc(C(C)C)cc(N3CCN(c4ccc(O)cc4)CC3)n2n1`, the cytotoxicity at 70.5 h is -1.87%. Under `COc1cc2c(cc1OC)CN(Cc1ncccc1C(=O)O)CC2` stands -13.5%; under `C[C@@H]1CN(Cc2ccncc2)C[C@]1(C)O`, -18%; under `Cc1ccc(-c2ccnc(N3CCC4(CCO4)CC3)n2)c(C)n1`, -6.98%. For the compound `CCc1nc2c(c(NCc3nc(-c4cccnc4)no3)n1)CCNCC2`, the cytotoxicity at 70.5 h was -2.89%.

`COCC1(CNC(=O)Nc2cc(F)ccc2OC)CCCC1`: the cytotoxicity at 70.5 h is 6.61%. For `CC(C)C[C@H]1CN(c2nc3c(cc2C(N)=O)CCC3)CC[C@@]1(C)O` the value was -7.33%; for `CN1C[C@@H](n2cnc(-c3ccccc3)c2-c2nccn2C)C[C@H]1C(=O)O`, -11.9%; for `Cc1nn(C)cc1-c1ccnc(N(C)Cc2cnn(C)c2)n1`, -2.26%. Under `CCOc1ccc(-c2ccc3c(c2)OCO3)cc1C(N)=O` stands 5.58%.

On to `COc1cccc(OC2CN(C(=O)c3c(C)noc3C)C2)c1`, for which the cytotoxicity at 70.5 h was -9.88%.

Consider `O=C(CO)N1CC[C@@H](N2CCN(c3ccccc3F)CC2)[C@H](O)C1`, for which the cytotoxicity at 70.5 h came to 6.39%.

As to `CN(Cc1cccc(OCCO)c1)Cc1cccc2ncccc12`, the cytotoxicity at 70.5 h worked out at 19.3%. Under `CN1CCN(Cc2cnn(-c3ccc(F)cc3)c2)[C@H]2CS(=O)(=O)C[C@H]21` stands -4.08%; under `c1csc(CN(Cc2ccsc2)CC2CCCO2)n1` (stereo unspecified), -1.84%; under `CCN(Cc1ccncc1)C(=O)C1COc2c(cccc2OC)C1` (stereo unspecified), 6.05%. For `O=C1NCC2(CCCN(C(=O)c3ccc4c(c3)OCCO4)CC2)O1` (stereo unspecified) the value was -2.63%; for `COC(=O)N1CCN(C(=O)c2ccc(C)c(N3CCNC3=O)c2)CC1`, 14%; for `CC(C)(O)CCc1cccc(C(=O)NCc2cnn3cccnc23)c1`, -4.68%. Under `Cn1cc(CN2CCCC(CCc3ccc(F)c(F)c3)C2)cn1` (stereo unspecified) stands -2.93%.

Turning to `Cc1cc(C)n2nc(C(=O)N[C@H]3C[C@H]4CN(C)CCN4C3)cc2n1`, the cytotoxicity at 70.5 h is -6.02%. Under `CC(C)CN1CCCC1c1ccc(C(=O)Nc2cn(C)nn2)s1` (stereo unspecified) stands -0.657%; under `CCn1ncc(C(=O)N2CCCN(CCCc3ccccc3)CC2)c1C`, -2.97%. For `CCCS(=O)(=O)N1CCC2(CC1)CC(=O)N(Cc1cc(F)cc(F)c1)C2`, the cytotoxicity at 70.5 h is -7.19%. As for `C=C(C)COc1ccccc1C(=O)NCCc1cc(O)nc(C)n1`, the cytotoxicity at 70.5 h was -11.9%. For `CN(Cc1n[nH]c2c1CCCC2)c1nc(C2CC2)nc2c1CCNCC2`, the cytotoxicity at 70.5 h is -1.06%. For `O=C(c1cnc(C2CC2)nc1O)N1CCN(Cc2ccccc2F)CC1` the value was 0.38%; for `COCCN1CCCC2(CCN(c3nccnc3N(C)C)C2)C1=O` (stereo unspecified), -14.9%. Take `O=C(c1ccccc1C(F)(F)F)N1CC[C@@H](N2CCC(O)CC2)[C@H](O)C1`: the cytotoxicity at 70.5 h is -1.82%. Under `CCc1nc(C)c(CN2CCN(c3ncnc4c(C)csc34)CC2)[nH]1` stands -14%; under `CC(C)[C@H]1COC(=O)N1Cc1nccn1C1CC1`, -3.35%; under `Cc1ccc(F)c(NC(=O)CCC(=O)N(C)Cc2cc(C3CC3)[nH]n2)c1`, -8.19%. Under `COc1ccc([C@@H]2CN(C(=O)CCn3cccn3)C[C@H]2NC(C)=O)cc1` stands 6.76%; under `Cc1cc(N2CCC(C(=O)O)(n3ccc(C(C)C)n3)CC2)nc(N)n1`, 6.37%; under `OC1(CN2CCCCC2)CCN(c2ccc(C(F)(F)F)cn2)C1` (stereo unspecified), -4.17%. As to `CN(C)C1CCCN(C(=O)CCc2csc(N)n2)CC1` (stereo unspecified), the cytotoxicity at 70.5 h is 1.01%. Take `Cc1ccc2oc(CN3CCC(C(=O)O)(n4ccnc4)CC3)c(C)c2c1`: the cytotoxicity at 70.5 h is -16.8%. For `CSc1ccc(C(C(=O)O)N2CCC(C(=O)N3CCCC3)CC2)cc1` (stereo unspecified) the value was -4.74%; for `COCCNS(=O)(=O)c1cccc2c1CN(C(=O)c1cc(C)on1)CC2`, -2.31%. Under `COc1cc(C)ccc1S(=O)(=O)N1CC[C@](C)(O)[C@H](C)C1` stands -5.97%; under `Cc1cc(-c2nc(-c3ccccn3)nn2C2CCN(C)CC2)nc(C)n1`, -3.28%; under `Cc1c(CN2CCCC(C(=O)c3ccccc3)C2)cc(C#N)n1C` (stereo unspecified), -4.58%. Under `O=C(CC1CCc2ccccc21)NC1(C(=O)O)CCOCC1` (stereo unspecified) stands -14%; under `CC(NC(=O)CCCc1ccc(Cl)cc1)c1nnn[nH]1` (stereo unspecified), -11.1%.

For `Cc1cccc(C(C(=O)N2CC(c3ccccn3)C2)N(C)C)c1` (stereo unspecified), the cytotoxicity at 70.5 h was -3.41%. For `CC(O)c1cn(CC2CCN(C(=O)CN(C)C(C)C)CC2)nn1` (stereo unspecified) the value was -6.36%. Regarding `O=C(c1ccnc(-n2cnnc2)c1)N1CCCC2(CCOC2)C1` (stereo unspecified), the cytotoxicity at 70.5 h is -2.19%. Under `COc1cc2cc(C(=O)NC(C)C(=O)O)n(C)c2c(OC)c1OC` (stereo unspecified) stands -7.07%; under `O=C(C1CC(=O)N(c2ccccc2)C1)N1CCC2(CC1)OCCO2` (stereo unspecified), 5.21%; under `CCCc1cc(=O)[nH]c(-c2ccccc2CN(C)CCn2cccn2)n1`, 5.03%.

Turning to `Cc1ccc(-n2ncc3c2CCCC3N)cc1C` (stereo unspecified), the cytotoxicity at 70.5 h is -4%. For `Cc1nc2sccn2c1C(=O)N1CCc2c(nc(N)[nH]c2=O)C1` the value was -4.21%; for `O=S(=O)(c1cc(F)ccc1F)N1CCCC1c1ccco1` (stereo unspecified), -6.01%; for `O=c1[nH]c(NC2CCCC2)nc2nccc(-c3cccs3)c12`, -4.19%. Consider `COCCCn1c(CN2CCCCO2)cnc1S(=O)(=O)C1CCCC1`, for which the cytotoxicity at 70.5 h was -4.4%.

For the compound `Cc1noc(-c2ccc(N[C@H]3CCCCNC3=O)nc2)n1`, the cytotoxicity at 70.5 h was -1.42%. For `CO[C@@]1(C)C[C@@H](O)C12CCN(C(=O)C1(c3ccccc3F)CC1)CC2` the value was 9.4%; for `CC(C)CNC(=O)CN(C)S(C)(=O)=O`, 0.607%. For `Cc1cc(=O)[nH]c(SC(C)C(=O)N2CCCN(C3CCCC3)CC2)n1` (stereo unspecified) the value was 6.46%; for `CC(=O)N[C@H]1CN(CC(=O)NCc2ccccc2C)C[C@@H]1C(C)C`, -4.45%; for `CCC(NC(=O)C1CCN(S(C)(=O)=O)CC1)c1ccc(OC)cc1` (stereo unspecified), -4.59%. For `CN(Cc1ccoc1)C(=O)C1CC(=O)N(Cc2ccncc2)C1` (stereo unspecified), the cytotoxicity at 70.5 h is -8.62%. For `Cc1ccc(C(=O)NCCN2CCOCC2)cc1N(C)S(C)(=O)=O` the value was 1.25%.

`Cc1c(C(=O)N(C)C)cccc1N(C)S(C)(=O)=O`: the cytotoxicity at 70.5 h was 0.872%. Under `CC(C)CN1CCC(NCCNc2cccnc2)CC1` stands -17.2%; under `C/C=C(\C)CN1C[C@H](c2cccc(OC)c2)[C@@H](N)C1`, -5.71%; under `CCN(CC)C(=O)[C@@H]1C[C@H](N)CN1C(=O)c1cc2c([nH]c1=O)CCC2`, 14.4%.

Take `CN1CCN(C(=O)C2CN(Cc3cc4ccccc4o3)CCN2)CC1` (stereo unspecified): the cytotoxicity at 70.5 h is -3.72%. For `CC(=O)Nn1ccc2c(nnc3c(-c4ccccc4)cnn32)c1=O`, the cytotoxicity at 70.5 h is -28.5%. For `C[C@@H]1CN(C(=O)CCCN2CCOCC2)CC[C@@]1(O)C1CCC1` the value was -3.73%; for `Cc1ccc2c(c1)OC(C)(C)CC2NC(=O)C1CCN(S(C)(=O)=O)CC1` (stereo unspecified), -5.08%; for `O=C(Nc1ccc2c(c1)OCO2)N1CCCC1c1ccco1` (stereo unspecified), -4.29%. For `Cc1cccc(C(C(=O)NCCCc2nnc3ccccn23)N(C)C)c1` (stereo unspecified) the value was 20.2%. Under `COc1ccc(CNC(=O)CCN2CCOC(C(F)(F)F)C2)cc1` (stereo unspecified) stands -7.56%.

As to `Cc1nc(O)cc(CNC(=O)CC[C@@H]2CCCN3CCCC[C@H]23)n1`, the cytotoxicity at 70.5 h is -9.94%. Consider `NCCO[C@H]1C[C@@H](O)C12CCN(C(=O)CCOc1ccccc1)CC2`, for which the cytotoxicity at 70.5 h is -0.434%. Under `COc1cccc2c1OCC(CNC(=O)CSc1ccccn1)C2` (stereo unspecified) stands -6.38%; under `COc1ccc(CN(C)c2nccc(-c3cn(C)nc3C)n2)cc1`, 13.2%; under `CCN(Cc1noc(CC(C)C)n1)Cc1ccccc1OCC(=O)O`, -2.84%. For the compound `CCc1ccc(NC(=O)C2CCN(C(=O)COC)CC2)cc1`, the cytotoxicity at 70.5 h was -9.16%. For `CC1(C)CN(C(=O)CC2CCC2)C[C@]1(C)O` the value was -2.02%.

These data come from ChEMBL document CHEMBL3507680, “University of Dundee, Gates Library screen for HepG2 cell viability”.
